US11357779B2 (G1 Therapeutics, Inc., priority 2018, dated 2022)
Where two headings read alike, the source gives them in different places.

Assay: Plasma concentration versus time of Compound I and metabolite Compound III in patients dosed QD or BID with Form B of Compound II plus fulvestrant
Assay type: in vivo, human
Details: for Trough Compound I Concentration, Max / Trough Compound I Concentration, Mean / Trough Compound I Concentration, Median / Trough Compound I Concentration, Min / Compound I Concentration, Max / Compound I Concentration, Median: Cohort 8, 200 mg BID of Form B; for concentration at 0 h / concentration at 1 h / concentration at 2 h / concentration at 3 h / concentration at 4 h / concentration at 6 h / concentration at 8 h / concentration at 10 h / concentration at 12 h / concentration at 8 day / concentration at 15 day / concentration at 22 day: human, plasma, oral, 100 mg; for concentration at 1 h: Day 1, 1.0 h; for concentration at 2 h: Day 1, 2.0 h; for concentration at 3 h: Day 1, 3.0 h; for concentration at 4 h: Day 1, 4.0 h; for concentration at 6 h: Day 1, 6.0 h; for concentration at 8 h: Day 1, 8.0 h; for concentration at 10 h: Day 1, 10.0 h; for concentration at 12 h: Day 1, 12.0 h
Text: Patients were enrolled into 1 of 2 parallel, independently operating, dose-escalation dosing cohorts with Form B of Compound II administered continuously either once daily (QD) or twice daily (BID) with food with fixed-dose fulvestrant (intramuscularly every 14 days for the first three injections and then every 28 days). Pre- or perimenopausal patients also received goserelin for the duration of study treatment. A […] agonist was started at least 28 days before the first dose of Form B, and those patients who were taking another LHRH agonist were switched to goserelin on Day 1. Patients were split into […] cohorts providing once a day (QD) dosing of 200 mg, 300 mg, 400 mg, 500 mg, or 650 mg of Form B, or twice a day (BID) dosing of 100 mg, 150 mg, or 200 mg of Form B. The second dose in BID cohorts was not administered in the evening until at least 12 hours after the initial morning dose of Form B. The dosing cohorts for Form B of Compound II are provided in Table 1.
Blood samples were collected at the following time points relative to the morning dose of Form B at Day 1 and at Day 29: pre-dose (0 hour) and 1, 2, 3, 4, 6, 8, 10, 12 (prior to the evening dose in the BID cohorts), and 24 (prior to the next day's morning dose) hours after dosing. A 5-minute time window was allowed for samples collected between the predose and 3 hours after Form B dosing. A 15-minute window was allowed for samples collected between 4 to 12 hours after Form B dosing. A 1-hour window was allowed for the sample collected 24 hours after Form B dosing. Blood samples for Compound I PK trough levels were collected pre-dose at Day 8, Day 15, and Day 22 prior to the morning administration of Compound I. Plasma concentrations of Compound I and its metabolite, Compound III, were measured using validated methods.
Analysis of plasma concentration versus time data for calculation of standard pharmacokinetic (PK) parameters following oral administration was conducted using Phoenix WinNonlin version 6.3 using actual blood sampling times.

[1] = 100 mg BID of Form B, Mean, read-out: Compound I Concentration
[2] = 100 mg BID of Form B, Median, read-out: Compound I Concentration

CC(C)N1CCN(c2ccc(Nc3ncc4cc5n(c4n3)C3(CCCCC3)CNC5=O)nc2)CC1 [Compound I, 2′-((5-(4-isopropylpiperazin-1-yl)pyridin-2-yl)amino)-7′,8′-dihydro-6′H-spiro[cyclohexane-1,9′-pyrazino[1′,2′:1,5]pyrrolo[2,3-d]pyrimidin]-6′-one]
Trough Compound I Concentration, Max (Day 8): 19.7 ng/mL | Trough Compound I Concentration, Mean (Day 8): 9.41 ng/mL | Trough Compound I Concentration, Median (Day 8): 6.82 ng/mL | Trough Compound I Concentration, Min (Day 8): 1.72 ng/mL | Trough Compound I Concentration, Max (Day 15): 16.3 ng/mL | Trough Compound I Concentration, Mean (Day 15): 11.0 ng/mL | Trough Compound I Concentration, Median (Day 15): 11.0 ng/mL | Trough Compound I Concentration, Min (Day 15): 5.71 ng/mL | Trough Compound I Concentration, Max (Day 22): 15.5 ng/mL | Trough Compound I Concentration, Mean (Day 22): 7.11 ng/mL | Trough Compound I Concentration, Median (Day 22): 5.83 ng/mL | Trough Compound I Concentration, Min (Day 22): 0.00 ng/mL | Compound I Concentration, Max (Day 29, 0.0 h): 17.2 ng/mL | Compound I Concentration, Median (Day 29, 0.0 h): 6.54 ng/mL | Compound I Concentration, Max (Day 29, 1.0 h): 13.3 ng/mL | Compound I Concentration, Median (Day 29, 1.0 h): 9.29 ng/mL | Compound I Concentration, Max (Day 29, 2.0 h): 17.0 ng/mL | Compound I Concentration, Median (Day 29, 2.0 h): 13.3 ng/mL | Compound I Concentration, Max (Day 29, 3.0 h): 22.5 ng/mL | Compound I Concentration, Median (Day 29, 3.0 h): 15.6 ng/mL | Compound I Concentration, Max (Day 29, 4.0 h): 30.5 ng/mL | Compound I Concentration, Median (Day 29, 4.0 h): 25.1 ng/mL | Compound I Concentration, Median (Day 29, 6.0 h): 21.1 ng/mL | Compound I Concentration, Median (Day 29, 8.0 h): 14.8 ng/mL | Compound I Concentration, Median (Day 29, 10.0 h): 11.7 ng/mL | Compound I Concentration, Median (Day 29, 12.0 h): 12.4 ng/mL | concentration at 0 h (100 mg BID of Form B, Day 1, 0.0 h, Mean, read-out: Compound I Concentration): 0 ng/mL | concentration at 0 h (100 mg BID of Form B, Day 1, 0.0 h, Median, read-out: Compound I Concentration): 0 ng/mL | concentration at 1 h [1]: 2.8 ng/mL | concentration at 1 h [2]: 2.6 ng/mL | concentration at 2 h [1]: 6.21 ng/mL | concentration at 2 h [2]: 5.71 ng/mL | concentration at 3 h [1]: 8.72 ng/mL | concentration at 3 h [2]: 8.09 ng/mL | concentration at 4 h [1]: 8.98 ng/mL | concentration at 4 h [2]: 7.47 ng/mL | concentration at 6 h [1]: 5.7 ng/mL | concentration at 6 h [2]: 5.12 ng/mL | concentration at 8 h [1]: 4.07 ng/mL | concentration at 8 h [2]: 3.71 ng/mL | concentration at 10 h [1]: 3.29 ng/mL | concentration at 10 h [2]: 2.91 ng/mL | concentration at 12 h [1]: 2.93 ng/mL | concentration at 12 h [2]: 2.2 ng/mL | concentration at 8 day (Cohort 6, 100 mg BID of Form B, Day 8, read-out: Trough Compound I Concentration, Max): 23.7 ng/mL | concentration at 8 day (Cohort 6, 100 mg BID of Form B, Day 8, read-out: Trough Compound I Concentration, Mean): 8.78 ng/mL | concentration at 8 day (Cohort 6, 100 mg BID of Form B, Day 8, read-out: Trough Compound I Concentration, Median): 5.49 ng/mL | concentration at 8 day (Cohort 6, 100 mg BID of Form B, Day 8, read-out: Trough Compound I Concentration, Min): 3.29 ng/mL | concentration at 15 day (Cohort 6, 100 mg BID of Form B, Day 15, read-out: Trough Compound I Concentration, Max): 22 ng/mL | concentration at 15 day (Cohort 6, 100 mg BID of Form B, Day 15, read-out: Trough Compound I Concentration, Mean): 8.92 ng/mL | concentration at 15 day (Cohort 6, 100 mg BID of Form B, Day 15, read-out: Trough Compound I Concentration, Median): 6.34 ng/mL | concentration at 15 day (Cohort 6, 100 mg BID of Form B, Day 15, read-out: Trough Compound I Concentration, Min): 3.31 ng/mL | concentration at 22 day (Cohort 6, 100 mg BID of Form B, Day 22, read-out: Trough Compound I Concentration, Max): 10.9 ng/mL | concentration at 22 day (Cohort 6, 100 mg BID of Form B, Day 22, read-out: Trough Compound I Concentration, Mean): 5.7 ng/mL | concentration at 22 day (Cohort 6, 100 mg BID of Form B, Day 22, read-out: Trough Compound I Concentration, Median): 4.42 ng/mL | concentration at 22 day (Cohort 6, 100 mg BID of Form B, Day 22, read-out: Trough Compound I Concentration, Min): 2.34 ng/mL | concentration at 0 h (Cohort 6, 100 mg BID of Form B, Day 29, 0.0 h, read-out: Compound I Concentration, Max): 9.2 ng/mL | concentration at 0 h (Cohort 6, 100 mg BID of Form B, Day 29, 0.0 h, read-out: Compound I Concentration, Mean): 4.35 ng/mL
